Consider 12 compounds from US5696151A, “Compounds useful for the inhibition of the replication of HIV-1 and HIV-1 mutants” (priority 1995, dated 1997).

The structures appear in SMILES notation. ≈ marks a conversion by molar mass, not a printed value. Where two headings read alike, the source gives them in different places.

What all share (type): cell-based
Series [1] deals with HIV-1/181-Cys. Description: Inhibition of HIV-1 induced syncytium formation in CEM cells, RT mutant 181-Cys. The settings on record: Human immunodeficiency virus 1, CCRF-CEM, 96 h. From the text:
(§1) CEM cells were obtained from the American Tissue Cell Culture Collection (Rockville, Md.). HIV-1(IIIB) was originally obtained from the culture supernatant of persistently HIV-1-infected H9 cells and was provided by R. C. Gallo and M. Popovic (National Cancer Institute, National Institutes of Health, Bethesda, Md.). […] 67: 5353-5359 (1993); HIV-1/Lys-138 ("Lys-138") was selected for resistance against TSAO-m^3T as described in Balzarini et al, Virology 192: 246-253 (1993) and Balzarini et al, Proc. Nat. Acad. Sci. USA 90: 6952-6956 (1993); HIV-1/181-Cys ("181-Cys") was selected for resistance against pyridinone L-697,661 as described in Balzarini et al, Virology 192: 246-253 (1993); and HIV-1/188-His ("188-His") was selected for resistance against HEPT as described in Balzarini et al, Mol. Pharmocol. 44: 694-701 (1993). 188-His was then further converted to HIV-1/188-Leu "188-Leu") upon further passage in cell culture in the absence of the HEPT.
(§2) CEM cells were suspended at ≈300,000 cells per ml of culture medium and infected with approximately 100 CCID50 (CCID50 being the 50% cell culture infective dose) of HIV-1(IIIB) or one of the HIV-1 RT mutant strains described above. Then 100 μl of the infected cell suspensions was added to 200 μl microtiter plate wells containing 100 μl of appropriate serial (5-fold) dilutions of the test compounds. The inhibitory effect of the test compounds on HIV-1 induced syncytium formation in CEM cells was examined microscopically on day 4 post infection.

In series [2] the test system is HIV-1/100-Ile. Put plainly: Inhibition of HIV-1 induced syncytium formation in CEM cells, RT mutant 100-Ile. Particulars: Human immunodeficiency virus 1, CCRF-CEM, 96 h.
From the text: as §1, §2

In series [3] the test system is HIV-1/Lys-138. Put plainly: Inhibition of HIV-1 induced syncytium formation in CEM cells, RT mutant 138-Lys. Particulars: Human immunodeficiency virus 1, CCRF-CEM, 96 h.
From the text: as §1, §2

A short description of series [4]: in vitro. The settings on record: human, cem cells, CC50 (50% cytostatic concentration), Table 2B; CEM cell proliferation; averages of 2 to 3 independent experiments.
From the text: as §1
^b 50% cytostatic concentration (i.e., compound concentration require
to inhibit CEM cell proliferation by 50%)

The subject of series [5] is HIV-1(IIIB). Put plainly: Inhibition of HIV-1 induced syncytium formation in CEM cells, wild type. Particulars: Human immunodeficiency virus 1, IIIB, CCRF-CEM, 96 h, Table 2B, WT = HIV-1(IIIB), day 4, averages of 2 to 3 independent experiments, read-out: Antiviral Activity of Comparative Compounds EC50, WT.
From the text: as §1, §2

Series [6] deals with HIV-1/106-Ala. Description: Inhibition of HIV-1 induced syncytium formation in CEM cells, RT mutant 106-Ala. The settings on record: Human immunodeficiency virus 1, CCRF-CEM, 96 h.
From the text: as §1, §2

Setting [7] is: Table 2B, day 4, averages of 2 to 3 independent experiments, read-out: Antiviral Activity of Comparative Compounds EC50, 181-Cys.
Where [8] appears, read: Table 2B, day 4, averages of 2 to 3 independent experiments, read-out: Antiviral Activity of Comparative Compounds EC50, 100-Ile.
[9] abbreviates: Table 2B, day 4, averages of 2 to 3 independent experiments, read-out: Antiviral Activity of Comparative Compounds EC50, 138-Lys.
[10] abbreviates: Table 2B, day 4, averages of 2 to 3 independent experiments, read-out: Antiviral Activity of Comparative Compounds EC50, 106-Ala.

As usually defined, the EC50 is the midpoint of the concentration-response curve. As a reminder, the CC50 is the concentration at which the toxic effect on the cells reaches its halfway point. Lower therefore signals greater toxicity to the cells. Take `Cc1occc1C(=S)Nc1ccc(Cl)c(C=NOC(C)C)c1` [Compound 97]: the EC50 in series [1] (setting [7]) is 3.3 µg/mL (≈ 9.8 µM); in series [2] (setting [8]), 3.5 µg/mL (≈ 10.4 µM); in series [3] (setting [9]), 2 µg/mL (≈ 5.94 µM); in series [5], 0.009 µg/mL (≈ 0.0267 µM); in series [6] (setting [10]) it was at least 4 µg/mL. This compound returned a CC50 in series [4] of 3.3 µg/mL (≈ 9.8 µM).
As for `CC(C)OC(=O)c1cc(NC(=O)c2ccccc2)ccc1Cl` [Compound 62], the 50% effective concentration (EC50) amounted to 5.5 µg/mL (≈ 17.3 µM) in series [1] (setting [7]); 3.5 µg/mL (≈ 11 µM) in series [2] (setting [8]); 5 µg/mL (≈ 15.7 µM) in series [3] (setting [9]); 0.4 µg/mL (≈ 1.26 µM) in series [5]; 5 µg/mL (≈ 15.7 µM) in series [6] (setting [10]). Moreover, the CC50 in series [4] amounted to 6.2 µg/mL (≈ 19.5 µM).
On to `Cc1occc1C(=S)Nc1ccc(Cl)c(C(=O)OCC(C)C)c1` [Compound 103], for which the EC50 worked out at 0.07 µg/mL (≈ 0.199 µM) in series [1] (setting [7]); 0.19 µg/mL (≈ 0.54 µM) in series [2] (setting [8]); 0.06 µg/mL (≈ 0.171 µM) in series [3] (setting [9]); 0.01 µg/mL (≈ 0.0284 µM) in series [5]; 0.075 µg/mL (≈ 0.213 µM) in series [6] (setting [10]). This compound also showed a CC50 in series [4] of 8.5 µg/mL (≈ 24.2 µM).
As to `Cc1occc1C(=S)Nc1ccc(Cl)c(OCC(=O)OC(C)(C)C)c1` [Compound 115], the EC50 in series [1] (setting [7]) came out at 0.5 µg/mL (≈ 1.31 µM); in series [2] (setting [8]), 0.65 µg/mL (≈ 1.7 µM); in series [3] (setting [9]) it was 0.77 µg/mL (≈ 2.02 µM); in series [5] it was 0.29 µg/mL (≈ 0.759 µM); in series [6] (setting [10]) it was 0.2 µg/mL (≈ 0.524 µM). Moreover, in series [4], half-maximal cytotoxicity (CC50) was put at 4.3 µg/mL (≈ 11.3 µM).
Regarding `Cc1occc1C(=S)Nc1ccc(Cl)c(C(=O)OCC2CC2)c1` [Compound 105], the EC50 in series [1] (setting [7]) stood at 0.07 µg/mL (≈ 0.2 µM); in series [2] (setting [8]), 0.4 µg/mL (≈ 1.14 µM); in series [3] (setting [9]) it was 0.085 µg/mL (≈ 0.243 µM); in series [5], 0.015 µg/mL (≈ 0.0429 µM); in series [6] (setting [10]), 0.2 µg/mL (≈ 0.572 µM). It took 6.7 µg/mL (≈ 19.2 µM) to reach half-maximal cytotoxicity in series [4] (CC50).
Take `O=C(OC1CCCCC1)c1cc(NC(=S)c2ccccc2F)ccc1Cl` [Compound 65]: the EC50 worked out at 0.25 µg/mL (≈ 0.638 µM) in series [1] (setting [7]); 0.3 µg/mL (≈ 0.766 µM) in series [2] (setting [8]); 0.09 µg/mL (≈ 0.23 µM) in series [3] (setting [9]); 0.04 µg/mL (≈ 0.102 µM) in series [5]; 0.26 µg/mL (≈ 0.663 µM) in series [6] (setting [10]). The compound also gave a CC50 in series [4] of 19 µg/mL (≈ 48.5 µM).
Take `CC(C)C(OC(=O)c1cc(NC(=S)c2ccc[nH]2)ccc1Cl)C(C)C` [Compound 99]: the EC50 in series [1] (read-out: Antiviral Activity of Comparative Compounds EC50, 181-Cys, Table 2B, day 4, averages of 2 to 3 independent experiments) is over 10 µg/mL; in series [2] (read-out: Antiviral Activity of Comparative Compounds EC50, 100-Ile, Table 2B, day 4, averages of 2 to 3 independent experiments) it was over 1 µg/mL; in series [3] (read-out: Antiviral Activity of Comparative Compounds EC50, 138-Lys, Table 2B, day 4, averages of 2 to 3 independent experiments), over 10 µg/mL; in series [5], 0.1 µg/mL (≈ 0.264 µM); in series [6] (read-out: Antiviral Activity of Comparative Compounds EC50, 106-Ala, Table 2B, day 4, averages of 2 to 3 independent experiments), over 10 µg/mL. In addition, the CC50 in series [4] is over 100 µg/mL.
Consider `O=C(OC1CCCCC1)c1cc(NC(=S)c2ccsc2)ccc1Cl` [Compound 79], for which the EC50 in series [1] (setting [7]) was determined as 0.08 µg/mL (≈ 0.211 µM); in series [2] (setting [8]), 0.85 µg/mL (≈ 2.24 µM); in series [3] (setting [9]), 0.07 µg/mL (≈ 0.184 µM); in series [5] it was 0.03 µg/mL (≈ 0.079 µM); in series [6] (setting [10]) it was 0.07 µg/mL (≈ 0.184 µM). This compound gave a CC50 in series [4] of 4.1 µg/mL (≈ 10.8 µM).
`CCOC(=O)c1cc(NC(=S)c2ccoc2C)ccc1C` [Compound 75]: the EC50 turned out to be 0.6 µg/mL (≈ 1.98 µM) in series [1] (setting [7]); 0.9 µg/mL (≈ 2.97 µM) in series [2] (setting [8]); 0.35 µg/mL (≈ 1.15 µM) in series [3] (setting [9]); 0.009 µg/mL (≈ 0.0297 µM) in series [5]; 0.7 µg/mL (≈ 2.31 µM) in series [6] (setting [10]). Besides, in series [4], the midpoint of cytotoxicity, the CC50, lay at 16 µg/mL (≈ 52.7 µM).
With `C=CCOc1cc(NC(=S)c2ccoc2C)ccc1C#N` [Compound 74], the EC50 was determined as 3 µg/mL (≈ 10.1 µM) in series [1] (setting [7]); 6 µg/mL (≈ 20.1 µM) in series [2] (setting [8]); 0.09 µg/mL (≈ 0.302 µM) in series [3] (setting [9]); 0.015 µg/mL (≈ 0.0503 µM) in series [5]; 0.45 µg/mL (≈ 1.51 µM) in series [6] (setting [10]). For the same compound, the CC50 in series [4] was over 100 µg/mL.
As to `C#CCON=Cc1cc(NC(=S)c2ccoc2C)ccc1Cl` [Compound 112], the 50% effective concentration (EC50) in series [1] (setting [7]) is 0.8 µg/mL (≈ 2.4 µM); in series [2] (setting [8]), 0.75 µg/mL (≈ 2.25 µM); in series [3] (setting [9]), 0.5 µg/mL (≈ 1.5 µM); in series [5] it was 0.025 µg/mL (≈ 0.0751 µM); in series [6] (setting [10]) it was 0.35 µg/mL (≈ 1.05 µM). Further, the CC50 in series [4] turned out to be 10 µg/mL (≈ 30 µM).
As to `COc1ccc(NC(=S)c2ccoc2C)cc1CC(=O)OC(C)C` [Compound 57], the EC50 worked out at 0.5 µg/mL (≈ 1.44 µM) in series [1] (setting [7]); 1.3 µg/mL (≈ 3.74 µM) in series [2] (setting [8]); 0.08 µg/mL (≈ 0.23 µM) in series [3] (setting [9]); 0.009 µg/mL (≈ 0.0259 µM) in series [5]; 0.2 µg/mL (≈ 0.576 µM) in series [6] (setting [10]). The CC50 in series [4] was over 100 µg/mL.
